The source of these data is PMC11345766, “Computational Design of Pore-Forming Peptides with Potent Antimicrobial and Anticancer Activities” (Journal of Medicinal Chemistry, 2024).

Like-named read-outs stand apart in the source and are kept apart here. Ends that are not written are not given here. Where only a bound is given, the exact number is not on record here.

A short description of data set [1]: Calcein dye leakage assay from LUVs. Format: biochemical. The conditions noted are these: P:L 1:100; pH 7.4. The text has this:
To verify the pore-forming mechanism of action of the designed AMPs, we performed a calcein leakage assay. […] These lipid vesicles were used as simple mimics of bacterial membranes.[58] At the lowest tested peptide-to-lipid (P:L) ratio of 1:100 (mol/mol), three mutants (LP18, LP26, and LP40) caused >90% leakage, which was higher than the leakage caused by LP1 (87%). […] At the same concentration, LP23 caused leakage equivalent to that caused by LP1. Other mutants had lower leakage activity. At a higher P:L ratio of 1:50, all the abovementioned mutants caused 100% leakage, equivalent to that caused by LP1.
Pore-forming activity was tested using a dye leakage assay measuring the leakage of self-quenching fluorescent dye calcein from POPC:POPG (1:1 mol/mol) LUVs. DiD was mixed with lipids (1:500 mol/mol), and lipid film was created by evaporating chloroform, followed by 4 h of desiccation. Dried lipid film was dissolved in calcein buffer (35 mM calcein, 25 mM NaH2PO4·H2O and Na2HPO4·7H2O (3:7 mol/mol), 20 mM NaCl, and 1 mM EDTA). After 10 freeze–thaw cycles, the sample was extruded 50 times through a 100 nm pore size polycarbonate membrane filter. Free calcein in solution was removed using a HiTrap Desalting column. The concentrations of LUVs and peptides were adjusted to 0.02 and 0.1 mM, respectively, in PBS (25 mM NaH2PO4·H2O and Na2HPO4·7H2O (3:7 mol/mol), 100 mM NaCl, and 1 mM EDTA). The investigated P/L ratio was from 1:100 to 1:10 (mol/mol). Fluorescence intensity was measured using a HORIBA Scientific Jobin Yvon FluoroLog-3 Modular Spectrofluorometer (USA). Excitation and emission wavelengths were set to 495 and 520 nm, respectively. Triton X-100 10% caused 100% leakage used for normalization.

Another data set has as its system E. coli (TOP10). The experiment in a line: Broth microdilution antimicrobial susceptibility assay. Format: cell-based, Escherichia coli. The conditions noted are these: TOP10, 24 h. The text has this:
(§1) To test antimicrobial activity, all peptides were initially screened, in a broth microdilution assay, against Gram-negative Escherichia coli (TOP10) and Gram-positive Staphylococcus carnosus (CCM 4838T) Biosafety Level 1 (BSL-1) bacteria (Table 2). […] Four other mutants (LP3, LP26, LP36, and LP39) had higher activity than LP1 against E. coli, and two mutants (LP23 and LP32) had higher activity than LP1 against S. carnosus. Six mutants (LP29, LP30, LP31, LP33, LP40, and LP43) were not active against one or both bacteria, even at the highest concentration tested (50 μM).
(§2) Antimicrobial activity against E. coli TOP10 and S. carnosus CCM 4838T was tested using the broth microdilution assay. Bacteria were cultured in MHA Petri dish for 24 h, subcultured in an MHB test tube for 6 h at 37 °C, and diluted to 10^6 CFU/mL (OD600). […] Dilution series was prepared for concentrations 50 to 0.1 μM in a flat-bottom 96-well plate, inoculated with bacteria, and incubated for 24 h at 37 °C. Growth control wells were free from test compounds, and sterility control wells were free from bacteria. Bacterial MIC was determined as the lowest concentration of test compounds that inhibited visible growth of bacteria (i.e., no visible turbidity).
Background: Broth dilution looks for growth in wells or tubes with falling amounts of substance.

The next data set deals with S. carnosus (CCM 4838T). Put plainly: microbe, parasite or virus in culture. The following applies: CCM 4838, 24 h; read-out: Antimicrobial activity (MIC) S. carnosus (CCM 4838T). Format: cell-based, Staphylococcus carnosus.
From the text: as §1, §2

In data set [2] the test system is human red blood cells (HRBCs). The following applies: read-out: Hemolysis toxicity (IC50); 1 h incubation. Here is the method:
To investigate the toxicity for normal human cells, all peptides were first screened against human red blood cells (HRBCs) using a hemolysis assay (Table 2 and Figure S4).
Hemolysis toxicity was tested against HRBCs. Blood samples, collected from the university hospital, were centrifuged twice at 700 × g and once at 1000 × g for 8 min at 4 °C to obtain erythrocyte pellets. Supernatants were always discarded, and pellets were resuspended in PBS (the same as the antimicrobial susceptibility assay). The final RBC suspension was 0.5% (v/v). Dilution series was prepared for concentrations 50 to 0.1 μM in a V-bottom 96-well plate, followed by the addition of RBC suspension. […] After 1 h of incubation at 37 °C, the well plate was centrifuged at 1000 × g for 10 min at 4 °C. The supernatant, collected in a flat-bottom well plate, was measured for OD415 using Tecan Microplate Reader Infinite F500.

How the values of data set [3] were obtained: (§3) Cytotoxicity against human immortalized keratinocytes HaCaT, human alveolar basal epithelial A549 (derived from adenocarcinoma), and murine macrophages RAW 264.7 was tested using MTT [3-(4,5-dimethylthiazol-2-yl)-2,5-diphenyltetrazolium bromide] assay. Cells were cultured in Dulbecco’s modified Eagle’s medium (DMEM) containing 4 mM glutamine for HaCaT, or 2 mM glutamine for A549 and RAW 264.7 cells, supplemented with 10% heat-inactivated fetal bovine serum (FBS) and antibiotics (0.1 mg/mL penicillin and streptomycin). Nonessential amino acids (NEAA) and sodium pyruvate (1 mM) were added for macrophages. Cell lines were grown in 25 and 75 cm^2 flasks at 37 °C in a humidified atmosphere with 5% CO2. Cells were suspended in DMEM, containing glutamine, NEAA, and sodium pyruvate (as described above), supplemented with 2% FBS, plated in 96-well plates at 4 × 10^4 cells/well, and incubated at 37 °C in a 5% CO2 atmosphere. After overnight incubation, the medium was replaced with fresh DMEM supplemented with peptides at different concentrations: 2, 4, 8, 16, 32, 64, and 128 μM. Negative controls were cells without peptides. After 24 h of peptide treatment at 37 °C in a 5% CO2 atmosphere, medium was replaced with Hank’s buffer (136 mM NaCl, 0.34 mM Na2HPO4, 0.44 mM KH2PO4, 5.4 mM KCl, 4.1 mM NaHCO3, supplemented with 5.5 mM D-glucose) containing 0.5 mg/mL MTT. Mitochondrial dehydrogenases converted soluble yellow dye MTT to insoluble purple formazan. After 4 h of incubation, acidified isopropanol was added to dissolve formazan crystals and measured for OD570 using Tecan microplate reader Infinite M200 (Salzburg, Austria).

The procedure of data set [4]: as §3, with “After 24 h of peptide treatment at 37 °C in a 5% CO2 atmosphere, medium was replaced with Hank’s buffer (136 mM NaCl, 0.34 mM Na2HPO4, 0.44 mM KH2PO4, 5.4 mM KCl, 4.1 mM NaHCO3, supplemented with 5.5 mM D-glucose) containing 0.5 mg/mL MTT. Mitochondrial dehydrogenases converted soluble yellow dye MTT to insoluble purple formazan.” left out
The source holds these as a separate data set.

How the values of data set [5] were obtained: as §3
The source holds these as a separate data set.

For data set [6], the system named is murine macrophages RAW 264.7. The following applies: 24 h. As to the method: as §3
The subject of a further data set is E. coli (E1098). The following applies: E1098, 18 h.

On to “KKKKIKKIIKKIFQFINQIDNQIQDIKQNK-NH2 [LP33]”, for which, in [1], the “Calcein leakage (%) from LUVs at P:L 1:100 (mol/mol)” value is on record as 28.3 ± 9.3%. The results for the MIC in the data set with E. coli (TOP10) and in the data set with S. carnosus (CCM 4838T) were 50 µM and greater than 50 µM, respectively. In addition, the IC50 is greater than 50 µM in data set [2], less than 2 µM in data set [3], 27 µM in data set [4] and greater than 128 µM in data set [5].

With “KKKKLKKILKKLFQFIQQLDQQLQDIKQQK-NH2 [LP35]”, the “Calcein leakage (%) from LUVs at P:L 1:100 (mol/mol)” value in data set [1] was 63.3 ± 6.7%. In addition, the MIC is 0.4 µM against E. coli (TOP10), 0.4 µM in the data set on S. carnosus (CCM 4838T) and 0.5 µM against E. coli (E1098). In data set [6], this substance had an IC50 of 36 µM.

The IC50 is the concentration that inhibits the measured activity by half.
